Where two headings read alike, the source gives them in different places.
Columns and labels:
[1] = system: human rheumatoid arthritis synovial membrane (RASM); assay: Human RASM transplanted in SCID mice (RASM/SCID chimeric mouse); assay type: in vivo, human tissue in SCID mice
Description: Small pieces of human synovial tissue from patients with rheumatoid arthritis were transplanted into SCID mice. […] CD86, HLA-DR, TNFα and IL-6 expression was measured by immunohistology. (B) the weight of explants retrieved from the mice treated as indicated after 12d.
This study used the previously developed SCID-HuRAg murine model (20). Briefly, pannus tissue, consisting of the leading edge of the invading synovial membrane into articular cartilage and bone, was collected as a single mass from RA patients at the time of arthroplastic surgery with full ethical approval. A block of 4-8 mm in diameter was implanted subcutaneously into the back of 6- to 7-week-old male SCID mice (CB.17/Icr; Charles River Japan, Tokyo, Japan), which had been bred under specific pathogen-free conditions. Successful implantation of human RA tissue was assessed visually 4 weeks after implantation, after which therapeutic manipulation of the mice was undertaken. […] The mice were sacrificed 12 days after injection to allow removal of the implanted tissue.
The degree of synovial inflammation of the implanted tissue was assessed as previously described. The histological findings were scored according to two different scoring systems: Koizumi's (40) or Rooney's method (41).
Paraffin embedded tissue sections were used for immunostaining for CD86 and HLA-DR. Frozen tissue sections were stained for the detection of cytokines (TNF, IL-1, IL-6, and IL-10). The tissue sections were blocked for endogenous peroxidase activity with 0.3% hydrogen peroxide in methanol for 15 min. Non-specific antibody binding was blocked with 10% normal goat serum for 1 hr at room temperature. The sections were incubated with specific antibody or normal IgG for 1 hr at 37° C. The sections incubated with anti-CD86 antibody were treated with biotinylated secondary antibody, then visualised using a kit (Vectastatin ABC kit, Vector) with 3-amino-n-ethylcarbazole (Nichirei, Tokyo) as a substrate. The other sections were treated with peroxidase-conjugated anti-mouse IgG (Histofine Simple Stain MAX PO; Nichirei, Tokyo) for 30 min at room temperature and developed with 3-amino-n-ethylcarbazole (Nichirei, Tokyo) for visualization. Sections were counterstained with Mayer haematoxylin for 10 sec and mounted in aqueous permanent mounting solution (Nichirei, Tokyo).
The serum levels of human IL-4, IL-6 and IL-10 were measured by a quantitative sandwich enzyme immunoassay technique (Quantikine HS, R&D systems) according to the manufacturer's instructions.

[2] = system: indoleamine 2,3-dioxygenase (IDO); assay: Intracellular indoleamine 2,3-dioxygenase in mature dendritic cells (flow cytometry); assay type: cell-based, human; settings: mDC(BiP)
Description: Purified monocytes (>85% monocytes)(1.5.10^6/flask)(Corning Costar, High Wycombe, UK) were incubated in 5 ml of tissue culture medium (TCM)(RPMI 1640 medium (Sigma, Poole, UK) supplemented with 10% heat-inactivated foetal calf serum (FCS)(Life Technologies, Paisley, UK). iDC were generated using granulocyte macrophage—colony stimulating factor (GM-CSF) (1000 U/ml)(Novartis Research Institute, Vienna, Austria) and IL-4 (500 U/ml) (R&D Systems, Oxford, UK). Monocytes were cultured for 3 or 7 days with cytokines, either alone or in the presence of rhuBiP (20 μg/ml). Mature DC were generated by addition of 500 ng/ml lipopolysaccharide (LPS) for the final 2 days of culture.
Intracellular staining was carried out with fixed cells incubated with 1% paraformaldehyde in IF buffer for 5 minutes at room temperature. The cells were washed twice with IF buffer containing 0.3% saponin for permeabilization. […] Antibodies were added at the pre-determined optimal concentration for 20 mins and then the cells were washed twice with IF buffer and analysed. […] Cells were analysed on a FACScan cytometer using Cellquest software (Becton Dickinson, Oxford, UK). […]
Immunofluorescent staining was performed, as described previously (39), on DC harvested at day 7, T cells after 4 days co-culture with DC. […] Cells were analysed on a FACScan/FACScalibur cytometers using Cellquest software (BD, Oxford, UK).

[3] = system: collagen-induced arthritis (CIA); settings: administration of BiP to mice, literature reference, cited from earlier work
[4] = 10 μg/mouse single i.v. injection, 12 days
[5] = BiP 10 μg/animal i.v., 12d (FIG. 15A)

## BiP: 78 kD endoplasmic reticulum chaperone protein as disclosed in WO 00/21995; recombinant human protein
[1]; 10 μg/mouse i.v., 12 days
  human IL-6 in mouse sera: 0.5 ± 0.2 pg/mL
[1]; [4]
  Koizumi score of synovial inflammation: 6.1±2.6
  Rooney score of synovial inflammation: 16±6
[1]; BiP 10 μg/animal i.v., 12d
  IL-10 in explants: no increase in IL-10 was detected
[1]; [5]
  expression of CD86 and HLA-DR in explant sections (immunohistology): Significantly reduced expression of CD86 and HLA-DR
  production of human TNFα and IL-6 in explants (immunohistology): decreased production of human TNFα and IL-6
[2]; mean ±standard deviation, n=9 (Example 10)
  cells containing intracellular IDO: 14.1±7.1%
[2]; n=4 (Example 1)
  cells containing intracellular IDO: 17.6±8.6%
[3]
  effect on collagen-induced arthritis: prevented or treated ongoing collagen-induced arthritis
[3]; listed as rhuBiP
  effect on collagen-induced arthritis: prevented the induction of experimental arthritis

Source: patent US20080155704A1, “Methods and Compositions for Determining in vivo Activity of BiP” (King's College London, priority 2006, published 2008)
